From US20180136216A1, “Biomarkers for a Combination Therapy Comprising Lenvatinib and Everolimus” (EISAI R&D MANAGEMENT CO., LTD., priority 2015, published 2018)

Test system: metastatic renal cell carcinoma (RCC)
Experiment: Phase 2 study (NCT01136733) of lenvatinib, everolimus or the combination; baseline serum Ang2 versus OS and PFS
Assay type: in vivo, human
Method: Purpose: A Phase 2 study for lenvatinib was performed in patients with metastatic renal cell carcinoma (RCC) following a VEGF-targeted therapy. The importance of angiogenesis in RCC highlights the need to understand clinical mechanisms of escape from anti-angiogenic therapy, such as everolimus. This clinical biomarker analysis was conducted to identify predictive markers of clinical benefit in RCC patients upon the combination therapy with lenvatinib and everolimus compared to everolimus monotherapy.
The purpose of this analysis was to measure Ang2 level in blood samples, such as serum, obtained from patients in clinical trials at both pre- and post-treatment with lenvatinib, everolimus or the combination thereof, and to identify blood biomarkers which can be used to predict whether patients will need the combination therapy.
Materials and Methods: Patients having metastatic renal cell carcinoma after a prior VEGF-targeted therapy received lenvatinib mesylate (“lenvatinib”), everolimus, or the combination thereof until disease progression or development of unmanageable toxicities. Patients received lenvatinib at a dose of 24 mg (as lenvatinib free base; the same shall apply hereinafter) oral once daily, everolimus at a dose of 10 mg oral once daily, or lenvatinib at 18 mg and everolimus at 5 mg oral once daily. 153 patients were treated and evaluated for efficacy and molecular correlative analysis. This study was a part of a Phase 2 multicenter study of lenvatinib (NCT01136733). Pre- and post-treatment serum samples were collected for biomarker analysis. Serum samples were collected on Cycle 1 Day 1 (pre-treatment), Cycle 2 Day 15, and Day 1 of every cycle from Cycle 2, and at off-treatment. Each Cycle consisted of 4 weeks (28 days). Ang2 detection enzyme immunoassay kit (EIDIA Co., Ltd.) was used for the quantification of serum Ang2 level. The association between the concentration at Cycle 1 Day 1 (“baseline level”) of Ang2 and clinical outcomes, such as progression free survival (PFS) and overall survival (OS), was assessed. PFS is defined as the time from the date of randomization to the date of first documentation of disease progression or death, whichever occurs first. PFS was based on investigator review data using RECIST 1.1. OS is defined as the time from randomization until death from any cause. “Randomization” means randomization of a patient into a test group or a control group when therapy plan for a patient is determined.

[1] = low baseline Ang2 (≤3760 pg/ml)

## CO[C@H]1C[C@@H]2CC[C@@H](C)[C@@](O)(O2)C(=O)C(=O)N2CCCC[C@H]2C(=O)O[C@H]([C@H](C)C[C@@H]2CC[C@@H](OCCO)[C@H](OC)C2)CC(=O)[C@H](C)/C=C(\C)[C@@H](O)[C@@H](OC)C(=O)[C@H](C)C[C@H](C)/C=C/C=C/C=C/1C [everolimus, (1R,9S,12S,15R,16E,18R,19R,21R,23S,24E,26E,28E,30S,32S,35R)-1,18-dihydroxy-12-{(1R)-2-[(1S,3R,4R)-4-(2-hydroxyethoxy)-3-methoxycyclohexyl]-1-methylethyl}-19,30-dimethoxy-15,17,21,23,29,35-hexamethyl-11,36-dioxa-4-aza-tricyclo[30.3.1.0^4,9]hexatriaconta-16,24,26,28-tetraene-2,3,10,14,20-pentaone]
High baseline Ang2 (>3760 pg/ml)
  median PFS: 5.5 months
High baseline Ang2 (>3760 pg/ml, 33rd percentile cut-off)
  median OS: 12.2 months
Higher baseline Ang2, 25th percentile cut-off (3565 pg/ml)
  median OS: 12.2 months
Higher baseline Ang2, 70th percentile cut-off (5650 pg/ml)
  median OS: 12.2 months
[1]
  median OS: not reached
  median PFS: 5.6 months
